Assay results as given in patent publication US7531194B2, “Plant extracts for the treatment of rheumatoid arthritis” (Development Center for Biotechnology, priority 2006, dated 2009).

Key:
Format in all cases: in vivo, Lewis rats
Rheumatoid factor (RF) = test: Serum RF analysis of CIA rats fed PA crude extracts (Embodiment 2)
Method: The animal test scheme is shown as FIG. 2. Bovine collagen Type II (Bovine C II) was dissolved in 0.1 M acetic acid solution, stirred to dissolve thoroughly, and formulated into solutions with concentrations of 1.5 and 3 mg/ml, which were stored in 4° C. for later use. For the first immune injection, 100 μl of C II solution was emulsified with an equal amount of CFA, and injected subcutaneously (200 μl/rat) in the root portions of tails of the rats after the emulsification was complete. […] After about 15 days, the second immunization was done. 100 μl of C II solution was emulsified with an equal amount of IFA, and injected subcutaneously (200 μl/rat) in the root portions of tails of the rats after the emulsification was complete. Approximately from Day 20, the symptoms of arthritis were observed (CIA rats), and PA and indomethacin were fed until Day 45. [table] 1. Collagen was formulated in a coating buffer to a concentration of 40 μg/ml, 0.1 ml of which was added into a 96-well micro plate respectively, and was kept in 4° C. overnight. 2. After washing with Tris buffer three times, 0.2 ml of blocking buffer containing 1% BSA was added into each well. The reaction lasted for 2 hours at room temperature, and then was washed by Tris buffer three times again. 3. […] Finally, absorption (O.D) value was read out at the wavelength of 450 nm.

[1] = Body weight of CIA rats fed PA crude extracts (Embodiment 2); conditions: gavage from about Day 20 until Day 45, PA-H 375, PA-L 75, indomethacin 2.5 mg/kg/day, FIG. 3
Method: The test animals, Lewis rats, 8 weeks old and about 155-165 g in weight, were all purchased from National Laboratory Animal Center. They were raised in an animal house with a 12-hour light/12-hour dark cycle, a room temperature of 23±1° C., moderate moisture, and good air conditioning, wherein water and feed were provided ad libitum. In addition, during the operation, all the test animals conformed to the criteria of the International Committee on Laboratory Animals' standard regulation. The animal test scheme is shown as FIG. 2. Bovine collagen Type II (Bovine C II) was dissolved in 0.1 M acetic acid solution, stirred to dissolve thoroughly, and formulated into solutions with concentrations of 1.5 and 3 mg/ml, which were stored in 4° C. for later use. For the first immune injection, 100 μl of C II solution was emulsified with an equal amount of CFA, and injected subcutaneously (200 μl/rat) in the root portions of tails of the rats after the emulsification was complete. […] After about 15 days, the second immunization was done. 100 μl of C II solution was emulsified with an equal amount of IFA, and injected subcutaneously (200 μl/rat) in the root portions of tails of the rats after the emulsification was complete. Approximately from Day 20, the symptoms of arthritis were observed (CIA rats), and PA and indomethacin were fed until Day 45. [table] 1. […]

TNF-α = test: Abdominal cavity cell (PEC) culture, cytokine TNF-α, CIA rats fed PA crude extracts (Embodiment 2); conditions: LPS 10 μg/ml, 24 hours, FIG. 8
Method: (§1) The animal test scheme is shown as FIG. 2. Bovine collagen Type II (Bovine C II) was dissolved in 0.1 M acetic acid solution, stirred to dissolve thoroughly, and formulated into solutions with concentrations of 1.5 and 3 mg/ml, which were stored in 4° C. for later use. For the first immune injection, 100 μl of C II solution was emulsified with an equal amount of CFA, and injected subcutaneously (200 μl/rat) in the root portions of tails of the rats after the emulsification was complete. […] After about 15 days, the second immunization was done. 100 μl of C II solution was emulsified with an equal amount of IFA, and injected subcutaneously (200 μl/rat) in the root portions of tails of the rats after the emulsification was complete. Approximately from Day 20, the symptoms of arthritis were observed (CIA rats), and PA and indomethacin were fed until Day 45. [table] 1. After carbon dioxide euthanasia, the outer furs of the rat abdominal cavity were cut out by scissors, to expose the whole abdominal cavity. 2. HBSS buffer was injected into the abdominal cavity batch-wise by a 10 ml syringe to make a total volume of about 20 ml/rat. 3. The abdominal cavity of the rat was opened after the abdomen was gently kneaded. An incision of about 2 cm was made in the abdominal cavity by using scissors. […] The concentrations of cytokine TNF-α, IL-6, and IL-1β were analyzed by using ELISA kit.

IL-6 = test: Abdominal cavity cell (PEC) culture, cytokine IL-6, CIA rats fed PA crude extracts (Embodiment 2); conditions: LPS 10 μg/ml, 24 hours, FIG. 9
Method: as §1

IL-1β = test: Abdominal cavity cell (PEC) culture, cytokine IL-1β, CIA rats fed PA crude extracts (Embodiment 2); conditions: LPS 10 μg/ml, 24 hours, FIG. 8
Method: as §1

With `COc1ccc2c(c1)c(CC(=O)O)c(C)n2C(=O)c1ccc(Cl)cc1` [indomethacin, Indomethacin] as the molecule, how does the “reduction of serum RF value” (Rheumatoid factor (RF); Day 35 compared with Day 20, FIG. 6) read?
Its value is 47%.

And the “reduction of serum RF value” (Rheumatoid factor (RF); Day 45 compared with Day 20, FIG. 6)?
Its value is 51%.

And the “effect on the body weight of CIA rats (weight reduction)” value [1]?
The value was “weight reduction is efficiently avoided”.

And the “inhibition of PEC secreting TNF-α” value (TNF-α)?
Its value is “no effect of inhibiting PEC from secreting inflammatory cytokine”.

What about the “inhibition of PEC secreting IL-6” value (IL-6) of the same molecule?
Its value is “no effect of inhibiting PEC from secreting inflammatory cytokine”.

What about the “inhibition of PEC secreting IL-1β” value (IL-1β) of the same molecule?
Its value is “no effect of inhibiting PEC from secreting inflammatory cytokine”.
